Data reported in US10479780B2, “Aminopyrazole derivatives” (Chugai Seiyaku Kabushiki Kaisha, priority 2015, dated 2019).
pIC50: −log10 of the molar value.

Assays:
Type in all cases: biochemical
human Lck enzyme = biological target: T1, human Lck enzyme (Homo sapiens, UniProt P06239); assay: Lck enzyme inhibitory activity (time-resolved fluorometry, biotinylated peptide phosphorylation); conditions: biotinylated peptide phosphorylation, read-out: LCK_IC50
T1 construct: purchased Carna Biosciences, Inc. 08-170
Outline: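 Readout pairs a europium cryptate-labelled anti-phosphotyrosine antibody with XL665-streptavidin, measured by time-resolved fluorescence. IC50 derived from percent inhibition against untreated controls.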

human Yes1 enzyme = biological target: T2, human Yes1 enzyme (Homo sapiens, UniProt P07947); assay: Yes1 enzyme inhibitory activity (time-resolved fluorometry, biotinylated peptide phosphorylation); conditions: biotinylated peptide phosphorylation, read-out: YES_IC50
T2 construct: made in house
Outline: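 Inhibition was expressed against a compound-free control to give IC50, using TR-FRET read-out (Eu-cryptate anti-pTyr antibody, streptavidin-XL665).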

human Src enzyme = biological target: T3, human Src enzyme (Homo sapiens, UniProt P12931); assay: Src enzyme inhibitory activity (time-resolved fluorometry, biotinylated peptide phosphorylation); conditions: biotinylated peptide phosphorylation, read-out: SRC_IC50
T3 construct: purchased Carna Biosciences, Inc. 08-173
Outline: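 Compounds were tested for blocking tyrosine phosphorylation of a biotinylated peptide substrate by recombinant human Src. Phosphorylated product was quantified by time-resolved fluorometry using europium cryptate and XL665 conjugates, and IC50 was calculated against the compound-free control.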

T3 sequence (P12931 whole entry): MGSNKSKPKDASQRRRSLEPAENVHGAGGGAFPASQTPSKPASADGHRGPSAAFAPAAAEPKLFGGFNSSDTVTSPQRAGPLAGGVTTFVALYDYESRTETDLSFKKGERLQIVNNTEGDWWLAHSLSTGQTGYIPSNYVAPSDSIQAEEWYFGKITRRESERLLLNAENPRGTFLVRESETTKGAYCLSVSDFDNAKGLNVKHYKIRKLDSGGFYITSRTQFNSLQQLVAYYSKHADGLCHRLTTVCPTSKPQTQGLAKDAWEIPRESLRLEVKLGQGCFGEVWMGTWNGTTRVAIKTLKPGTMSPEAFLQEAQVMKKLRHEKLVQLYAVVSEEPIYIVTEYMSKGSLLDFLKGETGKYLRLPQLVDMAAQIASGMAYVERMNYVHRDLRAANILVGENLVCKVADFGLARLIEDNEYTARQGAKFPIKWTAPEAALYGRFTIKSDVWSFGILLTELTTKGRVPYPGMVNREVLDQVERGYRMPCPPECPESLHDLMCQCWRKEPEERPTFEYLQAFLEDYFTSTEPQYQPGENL
T2 sequence (P07947 whole entry): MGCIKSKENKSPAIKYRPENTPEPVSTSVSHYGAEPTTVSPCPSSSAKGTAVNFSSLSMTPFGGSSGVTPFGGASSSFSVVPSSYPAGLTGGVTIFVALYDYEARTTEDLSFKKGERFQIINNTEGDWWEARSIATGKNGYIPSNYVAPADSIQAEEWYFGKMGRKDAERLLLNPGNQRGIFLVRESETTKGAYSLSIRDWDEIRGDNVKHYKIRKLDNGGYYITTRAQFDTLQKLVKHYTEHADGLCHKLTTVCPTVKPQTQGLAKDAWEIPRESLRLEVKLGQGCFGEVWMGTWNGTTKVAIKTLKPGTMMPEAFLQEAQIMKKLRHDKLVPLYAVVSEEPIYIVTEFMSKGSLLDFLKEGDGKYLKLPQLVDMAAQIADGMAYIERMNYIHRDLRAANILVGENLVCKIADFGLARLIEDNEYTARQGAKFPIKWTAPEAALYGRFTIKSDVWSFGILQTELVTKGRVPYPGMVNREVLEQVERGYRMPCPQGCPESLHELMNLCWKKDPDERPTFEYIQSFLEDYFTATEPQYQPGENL
T1 sequence (P06239 whole entry): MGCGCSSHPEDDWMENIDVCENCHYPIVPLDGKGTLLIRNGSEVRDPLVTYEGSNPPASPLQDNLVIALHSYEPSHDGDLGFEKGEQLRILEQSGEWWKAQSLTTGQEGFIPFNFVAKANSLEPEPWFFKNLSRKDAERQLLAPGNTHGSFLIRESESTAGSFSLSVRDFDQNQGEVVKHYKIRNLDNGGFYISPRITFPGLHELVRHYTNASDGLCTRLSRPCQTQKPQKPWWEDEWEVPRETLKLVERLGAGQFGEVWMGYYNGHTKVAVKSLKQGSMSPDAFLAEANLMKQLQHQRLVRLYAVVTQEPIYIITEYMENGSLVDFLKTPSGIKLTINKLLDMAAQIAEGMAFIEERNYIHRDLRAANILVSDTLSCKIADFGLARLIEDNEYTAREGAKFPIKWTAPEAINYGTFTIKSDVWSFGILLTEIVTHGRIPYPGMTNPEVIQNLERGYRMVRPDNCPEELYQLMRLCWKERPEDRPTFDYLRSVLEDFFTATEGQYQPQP

SMILES	pIC50 (human Lck enzyme)	pIC50 (human Yes1 enzyme)	pIC50 (human Src enzyme)
Cc1cc2cc(C(=O)c3cnn(-c4cnc(Oc5ccccc5F)cc4C)c3N)[nH]c2cc1NS(=O)(=O)c1cccc(C#N)c1 [Example 5-1-440, N-[2-[5-amino-1-[6-(2-fluorophenoxy)-4-methylpyridin-3-yl]pyrazole-4-carbonyl]-5-mothyl-1H-indol-6-yl]-3-cyanobenzenesulfonamide]	6.89	8.43	6.36
Cc1cc2cc(C(=O)c3cnn(-c4cnc(Oc5ccccc5F)cc4C)c3N)[nH]c2cc1NS(=O)(=O)c1cccnc1 [Example 5-1-441, N-[2-[5-amino-1-[6-(2-fluorophenoxy)-4-methylpyridin-3-yl]pyrazole-4-carbonyl]-5-methyl-1H-indol-6-yl]pyridine-3-sulfonamide]	7.14	8.74	6.55
Cc1cc2cc(C(=O)c3cnn(-c4cnc(Oc5c(F)cccc5F)cc4C)c3N)[nH]c2cc1N1C(=O)CNC1=O [Example 5-1-442, 3-[2-[5-amino-1-[6-(2,6-difluorophenoxy)-4-methylpyridin-3-yl]pyrazolo-4-carbonyl]-5-methyl-1H-indol-6-yl]imidazolidine-2,4-dione]	8.31	8.92	7.68
Cc1cc2cc(C(=O)c3cnn(-c4cnc(Oc5c(F)cccc5F)cc4C)c3N)[nH]c2cc1N1C(=O)N[C@@H](C)C1=O [Example 5-1-443, (5S)-3-[2-[5-amino-1-[6-(2,6-difluorophenoxy)-4-methylpyridin-3-yl]pyrazole-4-carbonyl]-5-methyl-1H-indol-6-yl]-5-methylimidazolidine-2,4-dione]	8.31	8.85	7.60
Cc1cc2cc(C(=O)c3cnn(-c4ccc(Oc5ccccc5F)cc4C)c3N)[nH]c2cc1N1C(=O)N[C@@H](C)C1=O [Example 5-1-444, (5S)-3-[2-[5-amino-1-[4-(2-fluorophenoxy)-2-methylphenyl]pyrazole-4-carbonyl]-5-methyl-1H-indol-6-yl]-5-methylimidazolidine-2,4-dione]	8.41	9.19	7.89
Cc1cc(Oc2ccccc2F)ccc1-n1ncc(C(=O)c2cc3cc(F)c(N4C(=O)CNC4=O)cc3[nH]2)c1N [Example 5-1-445, 3-[2-[5-amino-1-[4-(2-fluorophenoxy)-2-methylphenyl]pyrazole-4-carbonyl]-5-fluoro-1H-indol-6-yl]imidazolidine-2,4-dione]	8.51	9.27	7.92
Cc1cc(Oc2ccccc2F)ccc1-n1ncc(C(=O)c2cc3cc(F)c(N4C(=O)N[C@@H](CO)C4=O)cc3[nH]2)c1N [Example 5-1-446, (5S)-3-[2-[5-amino-1-[4-(2-fluorophenoxy)-2-methylphenyl]pyrazole-4-carbonyl]-5-fluoro-1H-indol-6-yl]-5-(hydroxymethyl)imidazolidine-2,4-dione]	8.68	9.36	7.89
Cc1cc(Oc2ccccc2F)ccc1-n1ncc(C(=O)c2cc3cc(F)c(N4C(=O)N[C@@H](C(C)C)C4=O)cc3[nH]2)c1N [Example 5-1-447, (5S)-3-[2-[5-amino-1-[4-(2-fluorophenoxy)-2-methylphenyl]pyrazole-4-carbonyl]-5-fluoro-1H-indol-6-yl]-5-propan-2-ylimidazolidine-2,4-dione]	7.92	8.70	7.08
Cc1cc(Oc2ccccc2F)ccc1-n1ncc(C(=O)c2cc3cc(F)c(N4C(=O)[C@@H]5CCCN5C4=O)cc3[nH]2)c1N [Example 5-1-448, (7aS)-2-[2-[5-amino-1-[4-(2-fluorophenoxy)-2-methylphenyl]pyrazole-4-carbonyl]-5-fluoro-1H-indol-6-yl]-5,6,7,7a-tetrahydropyrrolo [1,2-c]imidazole-1,3-dione]	8.41	8.92	7.64
Cc1cc(Oc2ccccc2F)ccc1-n1ncc(C(=O)c2cc3cc(F)c(N4C(=O)[C@@H]5C[C@@H](O)CN5C4=O)cc3[nH]2)c1N [Example 5-1-449, (6R,7aS)-2-[2-[5-amino-1-[4-(2-fluorophenoxy)-2-methylphenyl]pyrazole-4-carbonyl]-5-fluoro-1H-indol-6-yl]-6-hydroxy-5,6,7,7a-tetrahydropyrrolo[1,2-c]imidazole-1,3-dione]	8.48	9.18	7.89
Cc1cc(Oc2ccccc2F)ccc1-n1ncc(C(=O)c2cc3cc(F)c(N4C(=O)NC5(CCCCC5)C4=O)cc3[nH]2)c1N [Example 5-1-450, 3-[2-[5-amino-1-[4-(2-fluorophenoxy)-2-methylphenyl]pyrazole-4-carbonyl]-5-fluoro-1H-indol-6-yl]-1,3-diazaspiro[4.5]decane-2,4-dione]	7.66	8.52	6.82
Cc1cc2cc(C(=O)c3cnn(-c4cnc(Oc5c(F)cccc5F)cc4C)c3N)[nH]c2cc1N1C(=O)N[C@@H](CO)C1=O [Example 5-1-451, (5S)-3-[2-[5-amino-1-[6-(2,6-difluorophenoxy)-4-methylpyridin-3-yl]pyrazole-4-carbonyl]-5-methyl-1H-indol-6-yl]-5-(hydroxymethyl) imidazolidine-2,4-dione]	8.34	9.05	7.39

Next, values leading:

pIC50 (human Lck enzyme)	pIC50 (human Yes1 enzyme)	pIC50 (human Src enzyme)	SMILES
7.55	8.27	6.82	Cc1cc2cc(C(=O)c3cnn(-c4cnc(Oc5c(F)cccc5F)cc4C)c3N)[nH]c2cc1N1C(=O)N[C@@H](Cc2ccccc2)C1=O [Example 5-1-452, (5S)-3-[2-[5-amino-1-[6-(2,6-difluorophenoxy)-4-methylpyridin-3-yl]pyrazole-4-carbonyl]-5-methyl-1H-indol-6-yl]-5-benzylimidazolidine-2,4-dione]
7.92	8.49	6.89	Cc1cc2cc(C(=O)c3cnn(-c4cnc(Oc5c(F)cccc5F)cc4C)c3N)[nH]c2cc1N1C(=O)N[C@@H](C(C)C)C1=O [Example 5-1-453, (5S)-3-[2-[5-amino-1-[6-(2,6-difluorophenoxy)-4-methylpyridin-3-yl]pyrazole-4-carbonyl]-5-methyl-1H-indol-6-yl]-5-propan-2-ylimidazolidine-2,4-dione]
8.29	8.77	7.40	Cc1cc2cc(C(=O)c3cnn(-c4cnc(Oc5c(F)cccc5F)cc4C)c3N)[nH]c2cc1N1C(=O)[C@@H]2CCCN2C1=O [Example 5-1-454, (7aS)-2-[2-[5-amino-1-[6-(2,6-difluorophenoxy)-4-methylpyridin-3-yl]pyrazole-4-carbonyl]-5-methyl-1H-indol-6-yl]-5,6,7,7a-tetrahydropyrrolo[1,2-c]imidazole-1,3-dione]
8.59	9.07	7.64	Cc1cc2cc(C(=O)c3cnn(-c4cnc(Oc5c(F)cccc5F)cc4C)c3N)[nH]c2cc1N1C(=O)[C@@H]2C[C@@H](O)CN2C1=O [Example 5-1-455, (6R,7aS)-2-[2-[5-amino-1-[6-(2,6-difluorophenoxy)-4-methylpyridin-3-yl]pyrazole-4-carbonyl]-5-methyl-1H-indol-6-yl]-6-hydroxy-5,6,7,7a-tetrahydropyrrolo[1,2-c]imidazole-1,3-dione]
8.66	9.40	8.06	Cc1cc2cc(C(=O)c3cnn(-c4ccc(Oc5ccccc5F)cc4C)c3N)[nH]c2cc1N1C(=O)N[C@@H](CO)C1=O [Example 5-1-456, (5S)-3-[2-[5-amino-1-[4-(2-fluorophenoxy)-2-methylphenyl]pyrazole-4-carbonyl]-5-methyl-1H-indol-6-yl]-5-(hydroxymethyl)imidazolidine-2,4-dione]
7.72	8.64	7.11	Cc1cc2cc(C(=O)c3cnn(-c4ccc(Oc5ccccc5F)cc4C)c3N)[nH]c2cc1N1C(=O)N[C@@H](Cc2ccccc2)C1=O [Example 5-1-457, (5S)-3-[2-[5-amino-1-[4-(2-fluorophenoxy)-2-methylphenyl]pyrazole-4-carbonyl]-5-methyl-1H-indol-6-yl]-5-benzylimidazolidine-2,4-dione]
8.40	9.14	7.80	Cc1cc2cc(C(=O)c3cnn(-c4ccc(Oc5ccccc5F)cc4C)c3N)[nH]c2cc1N1C(=O)[C@@H]2CCCN2C1=O [Example 5-1-458, (7aS)-2-[2-[5-amino-1-[4-(2-fluorophenoxy)-2-methylphenyl]pyrazole-4-carbonyl]-5-methyl-1H-indol-6-yl]-5,6,7,7a-tetrahydropyrrolo[1,2-c]imidazole-1,3-dione]
8.57	9.36	8.11	Cc1cc2cc(C(=O)c3cnn(-c4ccc(Oc5ccccc5F)cc4C)c3N)[nH]c2cc1N1C(=O)[C@@H]2C[C@@H](O)CN2C1=O [Example 5-1-459, (6R,7aS)-2-[2-[5-amino-1-[4-(2-fluorophenoxy)-2-methylphenyl]pyrazole-4-carbonyl]-5-methyl-1H-indol-6-yl]-6-hydroxy-5,6,7,7a-tetrahydropyrrolo[1,2-c]imidazole-1,3-dione]
6.70	8.35	6.11	Cc1cc2cc(C(=O)c3cnn(-c4cnc(Oc5ccccc5F)cc4C)c3N)[nH]c2cc1NS(=O)(=O)c1cc(F)cc(F)c1 [Example 5-1-460, N-[2-[5-amino-1-[6-(2-fluorophenoxy)-4-methylpyridin-3-yl]pyrazole-4-carbonyl]-5-methyl-1H-indol-6-yl]-3,5-difluorobenzenesulfonamide]
6.23	7.77	5.46	Cc1cc(C)c(S(=O)(=O)Nc2cc3[nH]c(C(=O)c4cnn(-c5cnc(Oc6ccccc6F)cc5C)c4N)cc3cc2C)c(C)c1 [Example 5-1-461]
